Laboratory results: US20200275656A1, “TRISUBSTITUTEDSILYLMETHYLPHENOXYQUINOLINES AND ANALOGUES” (Bayer Aktiengesellschaft, priority 2017, published 2020)

Tested on: Colletotrichum lindemuthianum
Assay: Example B: in vitro cell test on Colletotrichum lindemuthianum
Format: cell-based
Conditions: 120 h, 20 ppm of active ingredient, liquid culture, 5 days incubation, read-out: efficacy (inhibition of fungal growth)
Work on `Cc1nc2ccccc2cc1Oc1ccccc1C[Si](C)(C)C` [I.05, 2-methyl-3-{2-[(trimethylsilyl)methyl]phenoxy}quinoline] yielded an inhibition at 20 ppm of 90 to 100%. With `C[Si](C)(O)Cc1c(Cl)cccc1Oc1cnc2ccccc2c1` [I.25, [2-chloro-6-(quinolin-3-yloxy)benzyl](dimethyl)silanol] the inhibition at 20 ppm was 90 to 100%. `C[Si](C)(Cc1ccccc1Oc1cnc2c(F)cccc2c1)c1cccs1` [I.46, 3-(2-{[dimethyl(2-thienyl)silyl]methyl}phenoxy)-8-fluoroquinoline] showed an inhibition at 20 ppm of 90 to 100%.

Tested on: not listed separately
Assay: log P determination by HPLC on reversed-phase column (C 18), EEC Directive 79/831 Annex V.A8
Format: physicochemical
Conditions: Table 1; HPLC, 40° C., 0.1% aqueous formic acid and acetonitrile
Procedure: In table 1, the log P values were determined in accordance with EEC Directive 79/831 Annex V.A8 by HPLC (High Performance Liquid Chromatography) on a reversed-phase column (C 18), using the method described below:
temperature: 40° C.; mobile phases: 0.1% aqueous formic acid and acetonitrile; linear gradient from 10% acetonitrile to 95% acetonitrile; Calibration was carried out using unbranched alkan-2-ones (comprising 3 to 16 carbon atoms) with known log P values (determination of the log P values by the retention times using linear interpolation between two successive alkanones). lambda-max-values were determined using UV-spectra from 200 nm to 400 nm and the peak values of the chromatographic signals.
`C[Si](C)(C)Cc1ccccc1Cc1cnc2ccccc2c1` [I.01] gave a logP of 4.28. `C[Si](C)(C)Cc1ccccc1Oc1cnc2ccccc2c1` [I.02] gave a logP of 5.48. Work on `C[Si](C)(O)Cc1ccccc1Cc1cnc2ccccc2c1` [I.03] yielded a logP of 2.13. Compound `C[Si](C)(C)Cc1ccccc1Oc1cnc2ccccc2n1` [I.04] has a logP of 5.36. `Cc1cccc2cc(Oc3ccccc3C[Si](C)(C)C)cnc12` [I.06] showed a logP of 6.60. Compound `Cc1nc2ccccc2nc1Oc1ccccc1C[Si](C)(C)C` [I.07] has a logP of 5.59. `C[Si](C)(C)Cc1cc(F)ccc1Nc1cnc2ccccc2c1` [I.08] showed a logP of 3.69. Work on `C[Si](C)(C)Cc1ccccc1Nc1cnc2c(F)cccc2c1` [I.09] yielded a logP of 4.77. `C[Si](C)(C)Cc1ccccc1Oc1cnc2c(F)cccc2c1` [I.10] showed a logP of 5.45. With `C[Si](C)(C)Cc1c(F)cccc1Oc1cnc2ccccc2c1` [I.11] the logP was 5.54. Work on `C[Si](C)(C)Cc1ccccc1Oc1cnc2c(F)cccc2n1` [I.12] yielded a logP of 5.26. For `C[Si](C)(O)Cc1c(F)cccc1Oc1cnc2ccccc2c1` [I.13], the logP was 3.15. `C=C[Si](C)(C)Cc1ccccc1Oc1cnc2c(F)cccc2c1` [I.14] showed a logP of 5.45. Work on `C=C[Si](C)(C)Cc1c(F)cccc1Oc1cnc2ccccc2c1` [I.15] yielded a logP of 5.57. `Cc1cccc2cc(Nc3ccc(F)cc3C[Si](C)(C)C)cnc12` [I.16] showed a logP of 4.56. `Cc1nc2ccccc2cc1Oc1cccc(F)c1C[Si](C)(C)C` [I.18] showed a logP of 5.38. Work on `Cc1cccc2cc(Oc3cccc(F)c3C[Si](C)(C)C)cnc12` [I.19] yielded a logP of 6.70. In the case of `Cc1nc2ccccc2cc1Oc1ccc(F)cc1C[Si](C)(C)C` [I.20], the logP is reported as 5.01. `C[Si](C)(C)Cc1cc(Cl)ccc1Nc1cnc2ccccc2c1` [I.21] showed a logP of 4.39. For `C[Si](C)(C)Cc1c(Cl)cccc1Oc1cnc2ccccc2c1` [I.22], the logP was 6.17. In the case of `C[Si](C)(C)Cc1ccccc1Nc1cnc2c(F)c(F)ccc2c1` [I.23], the logP is reported as 5.03. In the case of `C[Si](C)(C)Cc1ccccc1Oc1cnc2c(F)c(F)ccc2c1` [I.24], the logP is reported as 5.72. With `C[Si](C)(C)Cc1ccccc1Oc1cnc2c(F)c(F)ccc2n1` [I.26] the logP was 5.54. Compound `C=C[Si](C)(C)Cc1c(Cl)cccc1Oc1cnc2ccccc2c1` [I.27] has a logP of 6.11. Work on `Cc1cccc2cc(Nc3ccc(Cl)cc3C[Si](C)(C)C)cnc12` [I.28] yielded a logP of 5.38. With `Cc1nc2ccccc2cc1Oc1ccc(Cl)cc1C[Si](C)(C)C` [I.29] the logP was 5.71. In the case of `Cc1nc2c(F)c(F)ccc2cc1Nc1ccccc1C[Si](C)(C)C` [I.30], the logP is reported as 5.32. `Cc1nc2c(F)c(F)ccc2nc1Oc1ccccc1C[Si](C)(C)C` [I.32] gave a logP of 5.81. `C[Si](C)(C)Cc1c(F)cccc1Oc1cnc2c(F)c(F)ccc2n1` [I.33] gave a logP of 5.60. In the case of `Cc1nc2c(F)c(F)ccc2cc1Oc1ccc(F)cc1C[Si](C)(C)C` [I.34], the logP is reported as 5.92. `C[Si](C)(C)Cc1ccccc1Oc1cnc2c(C(F)(F)F)cccc2c1` [I.35] showed a logP of 6.28. In the case of `Cc1nc2c(F)c(F)ccc2nc1Oc1c(F)cccc1C[Si](C)(C)C` [I.36], the logP is reported as 5.87. Work on `C[Si](C)(C)Cc1ccccc1Oc1cnc2c(C(F)(F)F)cccc2n1` [I.37] yielded a logP of 5.97. For `Cc1cccc2cc(Oc3ccccc3C[Si](C)(C)c3ccccc3)cnc12` [I.38], the logP was 6.83. Work on `C[Si](C)(Cc1cc(F)ccc1Nc1cnc2ccccc2c1)c1ccccc1` [I.39] yielded a logP of 3.99. `C[Si](C)(Cc1ccccc1Oc1cnc2c(F)cccc2c1)c1ccccc1` [I.40] showed a logP of 5.78. Compound `C[Si](C)(Cc1c(F)cccc1Oc1cnc2ccccc2c1)c1ccccc1` [I.41] has a logP of 5.91. For `C[Si](C)(C)Cc1cc(F)ccc1Nc1cnc2c(C(F)(F)F)cccc2c1` [I.42], the logP was 5.54. In the case of `C[Si](C)(C)Cc1ccc(Nc2cnc3ccccc3c2)c(C[Si](C)(C)C)c1` [I.43], the logP is reported as 5.85. `Cc1nc2c(F)c(F)ccc2nc1Oc1cccc(Cl)c1C[Si](C)(C)C` [I.44] showed a logP of 6.40. For `C[Si](C)(C)Cc1c(F)cccc1Oc1cnc2c(C(F)(F)F)cccc2c1` [I.45], the logP was 6.32. `C[Si](C)(Cc1c(F)cccc1Oc1cnc2ccccc2c1)c1cccs1` [I.47] gave a logP of 5.65. `C[Si](C)(C)Cc1c(F)cccc1Oc1cnc2c(C(F)(F)F)cccc2n1` [I.48] gave a logP of 6.04. With `Cc1nc2c(F)c(F)ccc2nc1Oc1cccc(Cl)c1C[Si](C)(C)O` [I.49] the logP was 4.13. For `Cc1cccc2cc(Nc3ccc(F)cc3C[Si](C)(C)c3ccccc3)cnc12` [I.50], the logP was 4.90. `Cc1cccc2cc(Oc3cccc(F)c3C[Si](C)(C)c3ccccc3)cnc12` [I.51] gave a logP of 6.90. `C[Si](C)(Cc1cc(Cl)ccc1Nc1cnc2ccccc2c1)c1ccccc1` [I.52] showed a logP of 4.69. Compound `C[Si](C)(Cc1c(Cl)cccc1Oc1cnc2ccccc2c1)c1ccccc1` [I.53] has a logP of 6.43. `Cc1cccc2cc(Nc3ccc(C[Si](C)(C)C)cc3C[Si](C)(C)C)cnc12` [I.54] gave a logP of 6.93. For `C[Si](C)(C)Cc1cc(Cl)ccc1Nc1cnc2c(C(F)(F)F)cccc2c1` [I.55], the logP was 6.00. Compound `C[Si](C)(Cc1c(Cl)cccc1Oc1cnc2ccccc2c1)c1cccs1` [I.56] has a logP of 6.20. Compound `C[Si](C)(C)Cc1c(Cl)cccc1Oc1cnc2c(C(F)(F)F)cccc2n1` [I.57] has a logP of 6.51. Work on `Cc1cccc2cc(Nc3ccc(Cl)cc3C[Si](C)(C)c3ccccc3)cnc12` [I.58] yielded a logP of 5.68. `COc1ccc([Si](C)(C)Cc2ccccc2Oc2cnc3c(F)cccc3c2)cc1` [I.59] showed a logP of 5.62. Compound `COc1ccc([Si](C)(C)Cc2c(F)cccc2Oc2cnc3ccccc3c2)cc1` [I.60] has a logP of 5.65. Work on `COc1ccccc1[Si](C)(C)Cc1c(F)cccc1Oc1cnc2ccccc2c1` [I.61] yielded a logP of 6.01. In the case of `COc1ccccc1[Si](C)(C)Cc1c(Cl)cccc1Oc1cnc2ccccc2c1` [I.62], the logP is reported as 6.50. In the case of `COc1ccc([Si](C)(C)Cc2c(Cl)cccc2Oc2cnc3ccccc3c2)cc1` [I.63], the logP is reported as 6.20. In the case of `C[Si](C)(C)Cc1ccc(Nc2cnc3c(C(F)(F)F)cccc3c2)c(C[Si](C)(C)C)c1` [I.65], the logP is reported as 7.36.

Same assay, conditions: reversed-phase HPLC column (C 18), Table 1; HPLC, 40° C., 0.1% aqueous formic acid and acetonitrile
`Cc1nc2ccccc2cc1Oc1ccccc1C[Si](C)(C)C` [I.05, 2-methyl-3-{2-[(trimethylsilyl)methyl]phenoxy}quinoline] gave a chromatographic logP of 5.05. Work on `Cc1nc2c(F)cccc2cc1Oc1ccccc1C[Si](C)(C)C` [I.17, 8-fluoro-2-methyl-3-{2-[(trimethylsilyl)methyl]phenoxy}quinoline] yielded a chromatographic logP of 5.85. Compound `C[Si](C)(O)Cc1c(Cl)cccc1Oc1cnc2ccccc2c1` [I.25, [2-chloro-6-(quinolin-3-yloxy)benzyl](dimethyl)silanol] has a chromatographic logP of 3.48. Compound `C[Si](C)(Cc1ccccc1Oc1cnc2c(F)cccc2c1)c1cccs1` [I.46, 3-(2-{[dimethyl(2-thienyl)silyl]methyl}phenoxy)-8-fluoroquinoline] has a chromatographic logP of 5.6.

Same assay, conditions: reversed-phase HPLC column (C 18), Table 2, compounds of formula (IIa); defined as for table 1
For `ClCc1c(Cl)cccc1Oc1cnc2ccccc2c1` [IIa.01, 3-[3-chloro-2-(chloromethyl)phenoxy]quinoline], the chromatographic logP was 3.94. In the case of `Fc1cccc(Oc2cnc3ccccc3c2)c1CCl` [IIa.02, 3-[2-(chloromethyl)-3-fluorophenoxy]quinoline], the chromatographic logP is reported as 3.57. Work on `Fc1cccc2cc(Oc3ccccc3CBr)cnc12` [IIa.03, 3-[2-(bromomethyl)phenoxy]-8-fluoroquinoline] yielded a chromatographic logP of 3.58.

Same assay, conditions: reversed-phase HPLC column (C 18), Table 3, compounds of formula (V); defined as for table 1
Compound `OCc1ccccc1Oc1cnc2c(F)cccc2c1` [V.01, {2-[(8-fluoroquinolin-3-yl)oxy]phenyl}methanol] has a chromatographic logP of 2.17.

Same assay, conditions: reversed-phase HPLC column (C 18), stated in preparation examples
`Cc1nc2ccccc2cc1Oc1ccccc1C[Si](C)(C)C` [I.05, 2-methyl-3-{2-[(trimethylsilyl)methyl]phenoxy}quinoline] showed a chromatographic logP of 5.05. With `Cc1nc2c(F)cccc2cc1Oc1ccccc1C[Si](C)(C)C` [I.17, 8-fluoro-2-methyl-3-{2-[(trimethylsilyl)methyl]phenoxy}quinoline] the chromatographic logP was 5.85. `C[Si](C)(O)Cc1c(Cl)cccc1Oc1cnc2ccccc2c1` [I.25, [2-chloro-6-(quinolin-3-yloxy)benzyl](dimethyl)silanol] gave a chromatographic logP of 3.48. `C[Si](C)(Cc1ccccc1Oc1cnc2c(F)cccc2c1)c1cccs1` [I.46, 3-(2-{[dimethyl(2-thienyl)silyl]methyl}phenoxy)-8-fluoroquinoline] gave a chromatographic logP of 5.6. With `Fc1cccc2cc(Oc3ccccc3CBr)cnc12` [IIa.03, 3-[2-(bromomethyl)phenoxy]-8-fluoroquinoline] the chromatographic logP was 3.65.

Tested on: Pyricularia oryzae
Assay: microbe, parasite or virus in culture
Format: cell-based
Conditions: 120 h, read-out: efficacy (inhibition of fungal growth)
`Cc1nc2ccccc2cc1Oc1ccccc1C[Si](C)(C)C` [I.05, 2-methyl-3-{2-[(trimethylsilyl)methyl]phenoxy}quinoline] showed an inhibition at 20 ppm of 90 to 100%. `C[Si](C)(Cc1ccccc1Oc1cnc2c(F)cccc2c1)c1cccs1` [I.46, 3-(2-{[dimethyl(2-thienyl)silyl]methyl}phenoxy)-8-fluoroquinoline] gave an inhibition at 20 ppm of 90 to 100%.
